Columns and labels:
[1] = tested on: wheat WDSDEs
[2] = tested on: wheat seed
[3] = tested on: WDSDEs

SMILES | effect of soaking WDSDEs on oxygen consumption [1] | effect on oxygen consumption when added to the reaction chamber during an oxygen measurement [1] | effect of ethanol exposure on intact seed germination on media ([2]; 70% ethanol, FIG. 2) | germination of intact seeds as measured by root and shoot development on media ([2]; sanitization treatments involving ethanol, FIG. 1) | viability of WDSDEs produced from treated seed [3] | cleanliness of WDSDEs excised from treated seed ([3]; seed sanitization, 10% Clorox bleach, ethanol used cold (~0° C.))
O=C(NO)c1ccccc1O [SHAM, salicylhydroxamic acid] | No effect | Very little effect |  |  |  | 
CCO [ethanol] |  |  | time-dependent effect | reduced germination | acceptable | less efficient

From patent US20220340916A1, “METHODS FOR TRANSFORMING WHEAT EXPLANTS AND COMPOSITIONS THEREFOR” (MONSANTO TECHNOLOGY LLC, priority 2013, published 2022)
